pIC50: −log10 of the molar value.
Key:
[1] = test system: TNF-α release from LPS stimulated PEC cells; assay: TNF-α release from LPS stimulated PEC macrophages (ELISA); format: cell-based, murine; conditions: Mus musculus, Macrophage
Procedure: Murine peritoneal exudate cell macrophages (PEC) were isolated by perfusion of mouse peritoneum and plated into 96-well trays at 5×10^5 cells per well. […] At various times thereafter, supernatants were removed and levels of either TNF-α or IL-1α were assayed using commercial 96-well microtiter immunoassay kits (Genzyme; TNF; Endogen, Boston, Mass.; IL-1α) according to manufacturer's specifications. […] 4000 cells were plated into each well of a 96-well microtiter plate and allowed to incubate for 72 hrs at 37° C. […] Either the HUVEC or U937 cells were stimulated with either LPS, IL-1α or TNF-α for 12 hrs. For the adhesion assay, U937 cells were labeled with the fluorescent viability stain, 2',7'-bis-(2-carboxyethyl)-5-(and-6)-carboxyfluorescein acetoxymethyl ester (BCECF). […] The cells were washed once with full media and 50,000 cells/well added to the HUVEC cultures. The samples were incubated at 37° C. for 30 min, inverted and centrifuged for 10 min at 400× g. After addition of […] Hanks Balanced Salt Solution (HBSS), the microtiter plate was then analyzed on a Millipore Cytofluor fluorescent plate reader (excitation 488 nm; emission 525 nm).
Cells were pretreated with […] CT1501R and supernatants assayed by ELISA for released TNF-α as a function of time following LPS stimulation. […]

TNF-α = assay: mouse plasma TNF-α ELISA after endotoxin; format: in vivo; conditions: for Plasma TNF: LPS + CT-1501R
Procedure: For ELISA measurements of cytokine levels in plasma, blood was collected by retro-orbital or cardiac puncture of anesthetized mice, immediately centrifuged and the EDTA plasma stored at -70° C. Particulate free plasma was thawed on ice and cytokine levels determined utilizing commercial ELISA assays with normal mouse plasma used to generate standard curves. Murine tumor necrosis factor-α and interleukin-1αkits were purchased from Genzyme (Cambridge, Mass.) and Endogen (Boston, Mass.), respectively. Each data point was an average of two ELISA measurements made from EDTA […] pooled from three mice. The data summarized in Table 3 were compiled from two independent experiments; data from Table 4 and 5 were from single experiments of three mice per data point.
Levels of TNF-α, IL-1α and IL-6 were measured in the plasma of mice as a function of time following treatment with S. abortus endotoxin. […] TNF-α levels peaked within 1 hour of treatment of endotoxin (Table 4 and FIG. 6). Treatment of the mice with CT1501R decreased the levels of TNF-α in the EDTA plasma of endotoxin treated mice at all time points measured. In particular, peak levels of TNF-α at 0.5 and 1 hour post endotoxin were decreased 2.5 and 2.6 fold respectively in the CT1501R treated mice.

[2] = test system: PBMC (peripheral blood mononuclear cells); assay: two-way mixed lymphocyte reaction (MLR); format: cell-based, human; conditions: FIG. 1
Excerpt: Various in vitro assays can be used to measure effects of the inventive compounds to module immune activity and have antitumor activity using a variety of cellular types. For example, a mixed lymphocyte reaction (MLR) provides a valuable screening tool to determine biological activity of each inventive compound. In the MLR, PBMCs (peripheral blood mononuclear cells) are obtained by drawing whole blood from healthy volunteers in a heparinized container and diluted with an equal volume of hanks balanced salt solution (HBSS). This mixture is layered on a sucrose density gradient, such as a Ficoll-Hypaque® gradient (specific gravity 1.08), and centrifuged at 1000× g for 25 minutes at room temperature or cooler. PBMC are obtained from a band at a plasma-Ficoll interface, separated and washed at least twice in a saline solution, such as HBSS. Contaminating red cells are lysed, such as by ACK lysis for 10 min at 37° C., and the PBMCs are washed twice in HBSS. The pellet of purified PBMCs is resuspended in complete medium, such as RPMI 1640 plus 20% human inactivated serum. Proliferative response of PBMC to allogeneic stimulation is determined in a two-way MLR performed in a 96-well microtiter plate. […] At the conclusion of the incubation tritiated thymidine is added (for example, 1 μCi/well of 40 to 60 Ci/mmole) and proliferation determined by liquid scintillation counting. […]

## C[C@@H](O)CCCCn1c(=O)c2c(ncn2C)n(C)c1=O [CT1501R, (R)-1-(5-hydroxyhexyl)-3,7-dimethylxanthine]
[1]; LPS stimulated PEC, drug 1 hour before LPS, FIG. 18, read-out: concentration for 50% inhibition of TNF-α release (IC50)
  pIC50: ~4.52
[1]; at 500 μM, read-out: inhibitory effects, % of the maximal LPS stimulation (1428 pg/ml)
  inhibition at 500 µM: ~40%
TNF-α; 0.5 hour post endotoxin
  fold decrease of plasma TNF-α: 2.5 fold
TNF-α; 1 hour post endotoxin
  fold decrease of plasma TNF-α: 2.6 fold
TNF-α; 0 hours post LPS
  Plasma TNF: 0 pg/mL
TNF-α; 0.17 hours post LPS
  Plasma TNF: 6 pg/mL
TNF-α; 0.5 hours post LPS
  Plasma TNF: 390 pg/mL
TNF-α; 1 hour post LPS
  Plasma TNF: 1728 pg/mL
TNF-α; 2 hours post LPS
  Plasma TNF: 940 pg/mL
TNF-α; 4 hours post LPS
  Plasma TNF: 400 pg/mL
TNF-α; 6 hours post LPS
  Plasma TNF: 350 pg/mL
[2]
  proliferative response of PBMC to allogeneic stimulation: showed dose-response activity
